In PubChem BioAssay (NCI):
Where “and” joins values, the source holds several entries; their conditions need not be identical. Equal values may be shown once.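 96-well plates; 48 h exposure; 5 concentrations. Endpoints by linear interpolation between flanking doses. Not reached: highest tested concentration assigned. GI50 = concentration required for 50% inhibition of growth. TGI: concentration producing complete growth inhibition.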

Assays:
Assay in all cases: NCI anticancer screen, dose series, 48 h; in the data active = GI50 below about 0.43 µM; inactive = the rest
MOLT-4 leukemia = tested on: MOLT-4 leukemia
K-562 leukemia = tested on: K-562 leukemia
OVCAR-5 ovarian = tested on: OVCAR-5 ovarian
SR leukemia = tested on: SR leukemia
HL-60(TB) leukemia = tested on: HL-60(TB) leukemia
SW-620 colon = tested on: SW-620 colon
A498 renal = tested on: A498 renal
NCI-H522 lung = tested on: NCI-H522 lung
SF-295 CNS = tested on: SF-295 CNS
HCC-2998 colon = tested on: HCC-2998 colon
NCI-H460 lung = tested on: NCI-H460 lung
HCT-116 colon = tested on: HCT-116 colon
EKVX NSCLC = tested on: EKVX NSCLC
TK-10 renal = tested on: TK-10 renal
RPMI-8226 leukemia = tested on: RPMI-8226 leukemia
SNB-78 CNS = tested on: SNB-78 CNS
COLO 205 colon = tested on: COLO 205 colon
CCRF-CEM leukemia = tested on: CCRF-CEM leukemia
HCT-15 colon = tested on: HCT-15 colon
CAKI-1 renal = tested on: CAKI-1 renal
SK-MEL-5 melanoma = tested on: SK-MEL-5 melanoma
RXF 393 renal = tested on: RXF 393 renal
DMS 114 small cell lung = tested on: DMS 114 small cell lung
UACC-257 melanoma = tested on: UACC-257 melanoma
M19-MEL melanoma = tested on: M19-MEL melanoma
HT29 colon = tested on: HT29 colon
NCI-H226 lung = tested on: NCI-H226 lung
UACC-62 melanoma = tested on: UACC-62 melanoma
SF-539 CNS = tested on: SF-539 CNS
786-0 renal = tested on: 786-0 renal
NCI-H23 lung = tested on: NCI-H23 lung
UO-31 renal = tested on: UO-31 renal
ACHN renal = tested on: ACHN renal
A549 NSCLC = tested on: A549 NSCLC
M14 melanoma = tested on: M14 melanoma
IGROV1 ovarian = tested on: IGROV1 ovarian
HOP-18 NSCLC = tested on: HOP-18 NSCLC
SK-MEL-2 melanoma = tested on: SK-MEL-2 melanoma
MALME-3M melanoma = tested on: MALME-3M melanoma
KM12 colon = tested on: KM12 colon
OVCAR-4 ovarian = tested on: OVCAR-4 ovarian
OVCAR-3 ovarian = tested on: OVCAR-3 ovarian
LXFL 529 NSCLC = tested on: LXFL 529 NSCLC
KM20L2 colon = tested on: KM20L2 colon
DLD-1 colon = tested on: DLD-1 colon
SNB-19 CNS = tested on: SNB-19 CNS
OVCAR-8 ovarian = tested on: OVCAR-8 ovarian
HOP-62 NSCLC = tested on: HOP-62 NSCLC
XF 498 CNS = tested on: XF 498 CNS
SF-268 CNS = tested on: SF-268 CNS
LOX IMVI melanoma = tested on: LOX IMVI melanoma
DMS 273 small cell lung = tested on: DMS 273 small cell lung
SK-OV-3 ovarian = tested on: SK-OV-3 ovarian
HOP-92 NSCLC = tested on: HOP-92 NSCLC
SN12C renal = tested on: SN12C renal
U251 CNS = tested on: U251 CNS
SK-MEL-28 melanoma = tested on: SK-MEL-28 melanoma
SNB-75 CNS = tested on: SNB-75 CNS

COc1cc2c(c(OC)c1OC)-c1ccc(SC)c(=O)cc1C(CC(=O)Oc1ccc(F)cc1)C2 (centres undefined)
27.7 µM and > 100 µM: TGI (MOLT-4 leukemia)
0.667 µM and 1.04 µM: TGI (NCI-H23 lung)
0.989 µM and 2.86 µM: TGI (HCT-15 colon)
0.306 µM and 1.08 µM: TGI (HCT-116 colon)
0.91 µM and 4.17 µM: TGI (SK-MEL-2 melanoma)
75 µM and 97.7 µM: TGI (HOP-92 NSCLC)
3.14 µM and 24 µM: TGI (SR leukemia)
75 µM and 73.6 µM: TGI (SNB-78 CNS)
0.768 µM: TGI (HL-60(TB) leukemia)
54.6 µM and 49.6 µM: TGI (HOP-62 NSCLC)
1.41 µM and 2.35 µM: TGI (U251 CNS)
75 µM and 10.1 µM: TGI (DLD-1 colon)
12.2 µM and 11 µM: TGI (RPMI-8226 leukemia)
0.656 µM: TGI (SF-539 CNS)
active: GI50 (K-562 leukemia) 0.351 µM | GI50 (SR leukemia) 0.124 µM | GI50 (SW-620 colon) 0.358 µM | GI50 (A498 renal) 0.0432 µM | GI50 (NCI-H522 lung) 0.217 µM | GI50 (SF-295 CNS) 0.286 µM | GI50 (HCC-2998 colon) 0.161 µM | GI50 (NCI-H460 lung) 0.346 µM | GI50 (HCT-116 colon) 0.323 µM | GI50 (SNB-78 CNS) 0.0891 µM | GI50 (COLO 205 colon) 0.307 µM | GI50 (CCRF-CEM leukemia) 0.367 µM | GI50 (HCT-15 colon) 0.384 µM | GI50 (SK-MEL-5 melanoma) 0.293 µM | GI50 (RXF 393 renal) 0.0426 µM | GI50 (DMS 114 small cell lung) 0.0325 µM | GI50 (UACC-257 melanoma) 0.264 µM | GI50 (M19-MEL melanoma) 0.338 µM | GI50 (HT29 colon) 0.258 µM | GI50 (NCI-H226 lung) 0.201 µM | GI50 (UACC-62 melanoma) 0.0509 µM | GI50 (786-0 renal) 0.325 µM | GI50 (NCI-H23 lung) 0.287 µM | GI50 (A549 NSCLC) 0.391 µM | GI50 (IGROV1 ovarian) 0.293 µM | GI50 (KM20L2 colon) 0.189 µM | GI50 (OVCAR-8 ovarian) 0.28 µM | GI50 (HOP-62 NSCLC) 0.41 µM | GI50 (LOX IMVI melanoma) 0.392 µM | GI50 (DMS 273 small cell lung) 0.262 µM | GI50 (SK-OV-3 ovarian) 0.04 µM | GI50 (U251 CNS) 0.41 µM
1.1 µM and 3.38 µM: TGI (SK-MEL-5 melanoma)
0.608 µM: TGI (OVCAR-3 ovarian)
1.83 µM and 1.14 µM: TGI (NCI-H460 lung)
11.1 µM and > 100 µM: TGI (SW-620 colon)
7.03 µM and 5.13 µM: TGI (XF 498 CNS)
0.305 µM and 1.03 µM: TGI (COLO 205 colon)
0.325 µM and 0.46 µM: TGI (HCC-2998 colon)
0.392 µM and 0.675 µM: TGI (HT29 colon)
75 µM and > 100 µM: TGI (K-562 leukemia) | TGI (OVCAR-5 ovarian) | TGI (SF-295 CNS) | TGI (EKVX NSCLC) | TGI (TK-10 renal) | TGI (UACC-257 melanoma) | TGI (786-0 renal) | TGI (UO-31 renal) | TGI (ACHN renal) | TGI (IGROV1 ovarian) | TGI (HOP-18 NSCLC) | TGI (MALME-3M melanoma) | TGI (OVCAR-4 ovarian) | TGI (SNB-19 CNS)
24.9 µM and 11.6 µM: TGI (SK-OV-3 ovarian)
14.1 µM and 23.1 µM: TGI (M19-MEL melanoma)
10 µM and > 100 µM: TGI (CAKI-1 renal)
20.2 µM and 7.79 µM: TGI (SN12C renal)
> 100 µM: TGI (SK-MEL-28 melanoma)
0.31 µM and 0.61 µM: TGI (NCI-H522 lung)
27.5 µM and > 100 µM: TGI (CCRF-CEM leukemia)
0.612 µM and 0.677 µM: TGI (NCI-H226 lung)
8.26 µM and 10.8 µM: TGI (LOX IMVI melanoma)
inactive: GI50 (MOLT-4 leukemia) 0.518 µM | GI50 (OVCAR-5 ovarian) 0.973 µM | GI50 (EKVX NSCLC) 0.981 µM | GI50 (TK-10 renal) 21.5 µM | GI50 (CAKI-1 renal) 1.9 µM | GI50 (UO-31 renal) 2.49 µM | GI50 (ACHN renal) 0.587 µM | GI50 (HOP-18 NSCLC) > 100 µM | GI50 (SK-MEL-2 melanoma) 0.449 µM | GI50 (OVCAR-4 ovarian) 5.4 µM | GI50 (LXFL 529 NSCLC) 0.507 µM | GI50 (SNB-19 CNS) 0.96 µM | GI50 (XF 498 CNS) 0.442 µM | GI50 (SF-268 CNS) 0.461 µM | GI50 (HOP-92 NSCLC) 1.91 µM
0.73 µM and 0.539 µM: TGI (UACC-62 melanoma)
0.239 µM and 0.363 µM: TGI (KM20L2 colon)
75 µM and 15 µM: TGI (SF-268 CNS)
2.37 µM: TGI (KM12 colon)
14.4 µM: TGI (M14 melanoma)

COc1ccc(-c2ccccc2)c(N/N=C2\CCCNC2=O)c1
> 100 µM: TGI (MOLT-4 leukemia) | TGI (OVCAR-5 ovarian) | TGI (SR leukemia) | TGI (SW-620 colon) | TGI (NCI-H522 lung) | TGI (SF-295 CNS) | TGI (HCC-2998 colon) | TGI (NCI-H460 lung) | TGI (EKVX NSCLC) | TGI (TK-10 renal) | TGI (RPMI-8226 leukemia) | TGI (SNB-78 CNS) | TGI (COLO 205 colon) | TGI (HCT-15 colon) | TGI (SK-MEL-5 melanoma) | TGI (DMS 114 small cell lung) | TGI (UACC-257 melanoma) | TGI (M19-MEL melanoma) | TGI (HT29 colon) | TGI (NCI-H226 lung) | TGI (UACC-62 melanoma) | TGI (SF-539 CNS) | TGI (786-0 renal) | TGI (NCI-H23 lung) | TGI (UO-31 renal) | TGI (ACHN renal) | TGI (M14 melanoma) | TGI (IGROV1 ovarian) | TGI (HOP-18 NSCLC) | TGI (SK-MEL-2 melanoma) | TGI (MALME-3M melanoma) | TGI (KM12 colon) | TGI (OVCAR-3 ovarian) | TGI (LXFL 529 NSCLC) | TGI (KM20L2 colon) | TGI (DLD-1 colon) | TGI (SNB-19 CNS) | TGI (OVCAR-8 ovarian) | TGI (SF-268 CNS) | TGI (LOX IMVI melanoma) | TGI (DMS 273 small cell lung) | TGI (SK-OV-3 ovarian) | TGI (HOP-92 NSCLC) | TGI (SNB-75 CNS) | TGI (SN12C renal) | TGI (U251 CNS) | TGI (SK-MEL-28 melanoma)
87.1 µM: TGI (HOP-62 NSCLC)
87.7 µM: TGI (XF 498 CNS)
27.5 µM: TGI (RXF 393 renal)
27 µM: TGI (A549 NSCLC)
25.8 µM: TGI (HCT-116 colon)
